As usually defined, the EC50 is the concentration needed to bring the measured effect to its halfway point.

The source of these data is US9751869B2, “LXR modulators” (BRISTOL-MYERS SQUIBB COMPANY, priority 2013, dated 2017).

The target in this assay is T1, LXRβ (Homo sapiens, UniProt P55055).
T1 construct: Co-transfection expression plasmids, comprising full-length LXRα (pCMX-h LXRα or LXRβ (pCMX-hLXRβ)); expressed in transfected cells; host or cells: CV-1 African green monkey kidney cells, transient transfection with pCMX-hLXRβ
T1 sequence (P55055 1-460): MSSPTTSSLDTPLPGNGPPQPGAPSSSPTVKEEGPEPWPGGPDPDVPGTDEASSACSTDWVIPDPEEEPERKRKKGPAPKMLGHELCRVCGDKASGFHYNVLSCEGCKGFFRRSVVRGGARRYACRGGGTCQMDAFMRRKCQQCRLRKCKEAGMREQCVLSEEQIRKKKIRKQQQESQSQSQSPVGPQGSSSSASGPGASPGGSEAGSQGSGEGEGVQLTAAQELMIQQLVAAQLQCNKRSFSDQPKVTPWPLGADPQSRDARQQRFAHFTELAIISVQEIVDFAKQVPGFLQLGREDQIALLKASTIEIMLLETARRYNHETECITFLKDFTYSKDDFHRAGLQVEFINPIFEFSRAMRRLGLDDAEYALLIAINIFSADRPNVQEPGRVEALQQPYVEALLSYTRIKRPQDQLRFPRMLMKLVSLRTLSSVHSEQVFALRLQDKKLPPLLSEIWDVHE
T1 sequence (P19793 1-462 partner): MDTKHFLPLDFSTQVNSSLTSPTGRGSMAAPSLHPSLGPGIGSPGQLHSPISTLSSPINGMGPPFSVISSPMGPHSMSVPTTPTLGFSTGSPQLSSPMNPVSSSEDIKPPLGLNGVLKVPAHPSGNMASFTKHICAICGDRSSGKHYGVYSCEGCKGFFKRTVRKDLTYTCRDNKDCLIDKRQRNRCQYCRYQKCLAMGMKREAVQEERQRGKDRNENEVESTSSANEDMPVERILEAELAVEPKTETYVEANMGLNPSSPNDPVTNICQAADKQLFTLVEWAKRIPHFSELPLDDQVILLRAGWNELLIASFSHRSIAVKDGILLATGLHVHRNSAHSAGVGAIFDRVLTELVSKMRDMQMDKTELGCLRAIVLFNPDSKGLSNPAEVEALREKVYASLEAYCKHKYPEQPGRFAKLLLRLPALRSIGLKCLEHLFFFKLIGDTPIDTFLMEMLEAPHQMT
The assay can be described thus: LXR/LXRE co-transfection assay (luciferase reporter) in CV-1 cells, LXRβ. The format is cell-based. Conditions: for EC50: CV-1 cells transfected with pCMX-hLXRβ and LXREx1-Tk-Luciferase, 20 hours incubation, read-out: LXRbeta agonism EC50; for Emax: read-out: LXRbeta % EFFICACY
The source says:
To measure the ability of compounds to activate or inhibit the transcriptional activity of LXR in a cell based assay, the co-transfection assay was used. It has been shown that LXR functions as a heterodimer with RXR. For the co-transfection assay, expression plasmids for LXRα and LXRβ are introduced separately via transient transfection into mammalian cells along with a luciferase reporter plasmid that contains one copy of a DNA sequence that is bound by LXR-RXR heterodimers (LXRE; Willy, P. et. al. 1995). LXRs heterodimerize with the endogenous RXR. Treatment of transfected cells with an LXR agonist increases the transcriptional activity of LXR, which is measured by an increase in luciferase activity.
Co-transfection expression plasmids, comprising full-length LXRα (pCMX-h LXRα or LXRβ (pCMX-hLXRβ), reporter plasmid (LXREx1-Tk-Luciferase), and control (pCMX-Galactosidase expression vector) (Willey et al. Genes & Development 9 1033-1045 (1995)).
CV-1 cells were prepared 24 hours prior to the experiment by plating them into T-175 flasks or 500 cm^2 dishes in order to achieve 70-80% confluency on the day of the transfection. The number of cells to be transfected was determined by the number of plates to be screened. Each well of a 384 well plate requires 1.5×10^4 cells. DNA Transfection Reagent was prepared by mixing the required plasmid DNAs with a cationic lipid transfection reagent Transit 2020 (Mirus Bio) for CV1 by following the instructions provided with the reagents. Optimal DNA amounts were determined empirically per cell line and size of vessel to be transfected. For each T175 cm^2 flask a total of 44.4 ug for CV1 of DNA, 133 ul Transit2020 and 4.5 ml DMEM for CV1 was mixed and added. Cells were then incubated at least 5 hours at 37° C. to prepare screening cells.
Assay plates were prepared by dispensing 5 μL of compound per well of a 384 well plate to achieve final compound concentration of 10 μM and no more than 0.5% DMSO. Media was removed from the screening cells, the cells trypsinized, harvested cells by centrifugation, counted, and plated at a density of approximately 1.5×10^4 cells in the 384 well assay plate prepared above in a volume of about 95 uL. Assay plates containing both compounds and screening cells (100 μL in total volume) were incubated for 20 hours at 37° C.
After incubation with compounds, media was removed from the cells and luciferase assay reagent (30 μL/well) added. After ˜2 minutes at ambient temperature, the assay plates were read on a luminometer (PE Biosystems Northstar reader with on-board injectors, or Envision (Perkin Elmer) or equivalent).
The LXR/LXRE co-transfection assay can be used to establish the EC50/IC50 values for potency and percent activity or inhibition for efficacy. Efficacy defines the activity of a compound relative to a high control ((N-(3-((4-fluorophenyl)-(naphthalene-2-sulfonyl)amino)propyl)-2,2-dimethylpropionamide)) or a low control (DMSO/vehicle). The dose response curves are generated from a 10 point curve with concentrations differing by ½ LOG units. Each point represents the average of 4 wells of data from a 384 well plate.
The data from this assay is fitted to the following equation, from which the EC50 value may be solved: Y=Bottom+(Top−Bottom)/(1+10^((log EC50-X)*HillSlope)).
The EC50/IC50 is therefore defined as the concentration at which an agonist or antagonist elicits a response that is halfway between the Top (maximum) and Bottom (baseline) values. The EC50/IC50 values represented are the averages of at least 2 and normally 3 independent experiments. The determination of the relative efficacy or % control for an agonist is by comparison to the maximum response achieved by ((N-(3-((4-fluorophenyl)-(naphthalene-2-sulfonyl)-amino)propyl)-2,2-dimethylpropionamide) that is measured individually in each dose response experiment.
Table 1 lists LXRβ EC50 values and % efficacy measurements in the cotransfection assay for examples of this invention.
Background: In a reporter assay the amount or activity of a reporter protein is the signal.

[1] abbreviates: CV-1 cells, relative to maximum response of high control N-(3-((4-fluorophenyl)-(naphthalene-2-sulfonyl)amino)propyl)-2,2-dimethylpropionamide.

For the compound `Cc1nc(-c2ccc(OC(F)(F)F)cc2)c(-c2cc(-c3cc(F)c(CO)c(S(C)(=O)=O)c3)ccc2-n2cc(C(N)=O)c(C3CC3)n2)o1` [Example 448, 3-cyclopropyl-1-(3′-fluoro-4′-(hydroxymethyl)-3-(2-methyl-4-(4-(trifluoromethoxy)phenyl)oxazol-5-yl)-5′-(methylsulfonyl)-[1,1′-biphenyl]-4-yl)-1H-pyrazole-4-carboxamide], the EC50 came out at 0.279 µM. For the same compound, the Emax under setting [1] stood at 30%.

In the case of `Cc1nc(-c2ccc3c(c2)OC(F)(F)O3)c(-c2cc(-c3cccc(S(C)(=O)=O)c3)ccc2-c2cc(C(C)OC(N)=O)nn2C)o1` (stereo not drawn) [Example 130, 1-(5-(3-(4-(2,2-difluorobenzo[d][1,3]dioxol-5-yl)-2-methyloxazol-5-yl)-3′-(methylsulfonyl)-[1,1′-biphenyl]-4-yl)-1-methyl-1H-pyrazol-3-yl)ethyl carbamate], the EC50 amounted to 0.113 µM. The “LXRbeta % EFFICACY” value under setting [1] turned out to be 56%.

Consider `Cc1nc(-c2ccc(C(F)(F)F)cc2)c(-c2cc(-c3cc(F)c(CO)c(S(C)(=O)=O)c3)ccc2-n2cc(Cl)c(C(F)(F)F)n2)o1` [Example 438, (4′-(4-chloro-3-(trifluoromethyl)-1H-pyrazol-1-yl)-3-fluoro-3′-(2-methyl-4-(4-(trifluoromethyl)phenyl)oxazol-5-yl)-5-(methylsulfonyl)-[1,1′-biphenyl]-4-yl)methanol], for which the EC50 is 0.128 µM. For the same compound, under setting [1], the Emax worked out at 70%.

For the compound `CN(C)C(=O)c1cc(-c2ccc(-c3cccc(S(C)(=O)=O)c3)cc2-n2nncc2-c2ccc(OC(F)(F)F)cc2)n(C)n1` [Example 38, N,N,1-trimethyl-5-[3′-(methylsulfonyl)-3-(5-{4-[(trifluoromethyl)oxy]phenyl}-1H-1,2,3-triazol-1-yl)biphenyl-4-yl]-1H-pyrazole-3-carboxamide], the EC50 is 1.13 µM. Further, under setting [1], the Emax turned out to be 60%.

In the case of `Cc1nc(-c2ccc3c(c2)OC(F)(F)O3)c(-c2cc(-c3cc(F)c(CO)c(S(C)(=O)=O)c3)ccc2-c2cc(C(F)(F)C(N)=O)nn2C)o1` [Example 74, 2-(5-(3-(4-(2,2-difluorobenzo[d][1,3]dioxol-5-yl)-2-methyloxazol-5-yl)-3′-fluoro-4′-(hydroxymethyl)-5′-(methylsulfonyl)biphenyl-4-yl)-1-methyl-1H-pyrazol-3-yl)-2,2-difluoroacetamide], the concentration giving a half-maximal response (EC50) was determined as 0.092 µM. Further, the Emax under setting [1] amounted to 60%.

For `CS(=O)(=O)c1cc(-c2ccc(-n3ccc(C(F)(F)F)n3)c(-c3oc(C4CC4)nc3-c3ccc(OC(F)(F)F)cc3)c2)cc(F)c1CO` [Example 339, (3′-(2-cyclopropyl-4-(4-(trifluoromethoxy)phenyl)oxazol-5-yl)-3-fluoro-5-(methylsulfonyl)-4′-(3-(trifluoromethyl)-1H-pyrazol-1-yl)biphenyl-4-yl)methanol], the EC50 was determined as 0.06 µM. In addition, under setting [1], the Emax turned out to be 64%.

For `Cc1nc(-c2ccc3c(c2)OC(F)(F)O3)c(-c2cc(-c3cc(F)c(CO)c(S(C)(=O)=O)c3)ccc2-c2cc(C(=O)NCC(F)(F)F)nn2C)o1` [Example 112, 5-(3-(4-(2,2-difluorobenzo[d][1,3]dioxol-5-yl)-2-methyloxazol-5-yl)-3′-fluoro-4′-(hydroxymethyl)-5′-(methylsulfonyl)-[1,1′-biphenyl]-4-yl)-1-methyl-N-(2,2,2-trifluoroethyl)-1H-pyrazole-3-carboxamide], the half-maximal effective concentration (EC50) was 0.257 µM. Under setting [1], the Emax amounted to 33%.

Take `Cc1nc(-c2ccc3c(c2)OC(F)(F)O3)c(-c2cc(-c3cc(F)c(CO)c(S(C)(=O)=O)c3)ccc2-n2ccc(C(C)(C)O)n2)o1` [Example 358, 2-(1-(3-(4-(2,2-difluorobenzo[d][1,3]dioxol-5-yl)-2-methyloxazol-5-yl)-3′-fluoro-4′-(hydroxymethyl)-5′-(methylsulfonyl)-[1,1′-biphenyl]-4-yl)-1H-pyrazol-3-yl)propan-2-ol]: the concentration giving a half-maximal response (EC50) came to 0.105 µM. In addition, under setting [1], the Emax came out at 30%.

Consider `Cc1nc(-c2ccc3c(c2)OC(F)(F)O3)c(-c2cc(-c3cc(F)c(CO)c(S(C)(=O)=O)c3)ccc2-n2nc(C(F)(F)F)cc2Cl)o1` [Example 347, (4′-(5-chloro-3-(trifluoromethyl)-1H-pyrazol-1-yl)-3′-(4-(2,2-difluorobenzo[d] [1,3]dioxol-5-yl)-2-methyloxazol-5-yl)-3-fluoro-5-(methylsulfonyl)biphenyl-4-yl)methanol], for which the EC50 came to 0.035 µM. In addition, the Emax under setting [1] was 92%.

Take `Cc1nc(-c2ccc(OC(F)F)cc2)c(-c2cc(-c3ccc(CO)c(S(C)(=O)=O)c3)ccc2-n2nc(C(F)(F)F)cc2C)o1` [Example 326, (3′-(4-(4-(difluoromethoxy)phenyl)-2-methyloxazol-5-yl)-4′-(5-methyl-3-(trifluoromethyl)-1H-pyrazol-1-yl)-3-(methylsulfonyl)biphenyl-4-yl)methanol]: the concentration giving a half-maximal response (EC50) was found to be 0.015 µM. Moreover, the Emax under setting [1] was 77%.

Regarding `Cc1nc(-c2ccc(OC(F)(F)F)cc2)c(-c2cc(-c3cccc(S(C)(=O)=O)c3)ccc2-n2ccc(C(C)(C)O)n2)o1` [Example 316, 2-(1-(3-(2-methyl-4-(4-(trifluoromethoxy)phenyl)oxazol-5-yl)-3′-(methylsulfonyl)biphenyl-4-yl)-1H-pyrazol-3-yl)propan-2-ol], the EC50 is 0.293 µM. Under setting [1], the Emax was determined as 24%.

Take `Cc1nc(-c2ccc(OC(F)(F)F)cc2)c(-c2cc(-c3cccc(S(C)(=O)=O)c3)ccc2-n2ccc(COC(N)=O)n2)o1` [Example 374, (1-(3-(2-methyl-4-(4-(trifluoromethoxy)phenyl)oxazol-5-yl)-3′-(methylsulfonyl)-[1,1′-biphenyl]-4-yl)-1H-pyrazol-3-yl) methyl carbamate]: the 50% effective concentration (EC50) is 0.421 µM. Further, the Emax under setting [1] worked out at 47%.
